Numbered stars: 1 amine (or outer) side, 2 acyl side, 3 side chain; on linkers, the order of the positions; unused ones are H or OH. Square brackets hold non-standard residues; d marks the D form. Peptide text beside a SMILES is read from it. * marks the point of attachment. X2 = CC(=O)N[C@@H](CS)C(=O)OCCOCCOCCN([C@@H](Cc1c[nH]c2ccccc12)C(=O)[*:2])[*:1]; X1 = CC(=O)N[C@@H](CS)C(=O)OCCOCCOCCNCCC(=O)*; Ahx = NCCCCCC(=O)O; βAla = NCCC(=O)O
Columns and labels:
[1] = Inhibition of HIV1 HXB2 gp160-mediated cell-cell fusion between viral envelope expressing human HL2/3 cells to human TZM-bl cells expressing CD4, tat, and rev by luciferase reporter gene assay; format: cell-based; conditions: Human immunodeficiency virus 1, HXB2, TZM-bl
TZM-bl = test: Inhibition of HIV1 HXB2 gp160-mediated cell-cell fusion between viral envelope expressing human HL2/3 cells to human TZM-bl cells expressing CD4, tat, and rev by luciferase reporter gene assay relative to C29; format: cell-based; conditions: Human immunodeficiency virus 1

| Structure (SMILES) | IC50 [1] [nM] | Ratio (TZM-bl) |
| --- | --- | --- |
| CC[C@H](C)[C@H](NC(=O)[C@H](CC(C)C)NC(=O)[C@H](CO)NC(=O)[C@H](Cc1cnc[nH]1)NC(=O)[C@@H](NC(=O)[C@H](CC(C)C)NC(=O)[C@H](CO)NC(=O)[C@@H](NC(=O)[C@H](Cc1ccc(O)cc1)NC(=O)[C@H](CC(N)=O)NC(=O)[C@H](CC(N)=O)NC(=O)[C@@H](NC(=O)[C@H](CCC(=O)O)NC(=O)[C@H](CCCNC(=N)N)NC(=O)[C@H](CC(=O)O)NC(=O)[C@H](Cc1c[nH]c2ccccc12)NC(=O)[C@H](CCC(=O)O)NC(=O)[C@H](CCSC)NC(=O)[C@H](Cc1c[nH]c2ccccc12)NCCOCCOCCOC(=O)[C@H](CS)NC(C)=O)[C@@H](C)CC)[C@@H](C)O)[C@@H](C)CC)C(=O)N[C@@H](CCC(=O)O)C(=O)N[C@@H](CCC(=O)O)C(=O)N[C@@H](CO)C(=O)N[C@@H](CCC(N)=O)C(=O)N[C@@H](CC(N)=O)C(=O)N[C@@H](CCC(N)=O)C(=O)N[C@@H](CCC(N)=O)C(=O)N[C@@H](CCC(=O)O)C(=O)N[C@@H](CCCCN)C(=O)N[C@@H](CC(N)=O)C(=O)O (H-[X2]MEWDREINNYTSLIHSLIEESQNQQEKN-OH) | 15.4 | 7.69 |
| CC[C@H](C)[C@H](NC(=O)[C@H](CC(C)C)NC(=O)[C@H](CO)NC(=O)[C@H](Cc1cnc[nH]1)NC(=O)[C@@H](NC(=O)[C@H](CC(C)C)NC(=O)[C@H](CO)NC(=O)[C@@H](NC(=O)[C@H](Cc1ccc(O)cc1)NC(=O)[C@H](CC(N)=O)NC(=O)[C@H](CC(N)=O)NC(=O)[C@@H](NC(=O)[C@H](CCC(=O)O)NC(=O)[C@H](CCCNC(=N)N)NC(=O)[C@H](CC(=O)O)NC(=O)[C@H](Cc1c[nH]c2ccccc12)NC(=O)[C@H](CCC(=O)O)NC(=O)[C@H](CCSC)NC(=O)[C@H](Cc1c[nH]c2ccccc12)NC(=O)CCCCCNC(=O)[C@H](CS)NC(C)=O)[C@@H](C)CC)[C@@H](C)O)[C@@H](C)CC)C(=O)N[C@@H](CCC(=O)O)C(=O)N[C@@H](CCC(=O)O)C(=O)N[C@@H](CO)C(=O)N[C@@H](CCC(N)=O)C(=O)N[C@@H](CC(N)=O)C(=O)N[C@@H](CCC(N)=O)C(=O)N[C@@H](CCC(N)=O)C(=O)N[C@@H](CCC(=O)O)C(=O)N[C@@H](CCCCN)C(=O)N[C@@H](CC(N)=O)C(=O)O (Ac-C[Ahx]WMEWDREINNYTSLIHSLIEESQNQQEKN-OH) | 49 | 2.41 |
| CC[C@H](C)[C@H](NC(=O)[C@H](CC(C)C)NC(=O)[C@H](CCC(=O)O)NC(=O)[C@H](CCC(=O)O)NC(=O)[C@@H](NC(=O)[C@H](CCCCN)NC(=O)[C@H](CCCCN)NC(=O)[C@@H](NC(=O)[C@H](Cc1ccc(O)cc1)NC(=O)[C@H](CCC(=O)O)NC(=O)[C@H](CCC(=O)O)NC(=O)[C@@H](NC(=O)[C@H](CCCCN)NC(=O)[C@H](CCCCN)NC(=O)[C@H](CC(=O)O)NC(=O)[C@H](Cc1c[nH]c2ccccc12)NC(=O)[C@H](CCC(=O)O)NC(=O)[C@H](CCC(=O)O)NC(=O)[C@H](Cc1c[nH]c2ccccc12)NC(C)=O)[C@@H](C)CC)[C@@H](C)O)[C@@H](C)CC)C(=O)N[C@@H](CCCCN)C(=O)N[C@@H](CCCCN)C(=O)N[C@@H](CO)C(=O)O (Ac-WEEWDKKIEEYTKKIEELIKKS-OH) | 345 | – |
| CC[C@H](C)[C@H](NC(=O)[C@H](CC(C)C)NC(=O)[C@H](CO)NC(=O)[C@H](Cc1cnc[nH]1)NC(=O)[C@@H](NC(=O)[C@H](CC(C)C)NC(=O)[C@H](CO)NC(=O)[C@@H](NC(=O)[C@H](Cc1ccc(O)cc1)NC(=O)[C@H](CC(N)=O)NC(=O)[C@H](CC(N)=O)NC(=O)[C@@H](NC(=O)[C@H](CCC(=O)O)NC(=O)[C@H](CCCNC(=N)N)NC(=O)[C@H](CC(=O)O)NC(=O)[C@H](Cc1c[nH]c2ccccc12)NC(=O)[C@H](CCC(=O)O)NC(=O)[C@H](CCSC)NC(=O)[C@H](Cc1c[nH]c2ccccc12)NC(C)=O)[C@@H](C)CC)[C@@H](C)O)[C@@H](C)CC)C(=O)N[C@@H](CCC(=O)O)C(=O)N[C@@H](CCC(=O)O)C(=O)N[C@@H](CO)C(=O)N[C@@H](CCC(N)=O)C(=O)N[C@@H](CC(N)=O)C(=O)N[C@@H](CCC(N)=O)C(=O)N[C@@H](CCC(N)=O)C(=O)N[C@@H](CCC(=O)O)C(=O)N[C@@H](CCCCN)C(=O)N[C@@H](CC(N)=O)C(=O)O (Ac-WMEWDREINNYTSLIHSLIEESQNQQEKN-OH) | 118 | – |
| CC[C@H](C)[C@H](NC(=O)[C@H](CC(C)C)NC(=O)[C@H](CO)NC(=O)[C@H](Cc1cnc[nH]1)NC(=O)[C@@H](NC(=O)[C@H](CC(C)C)NC(=O)[C@H](CO)NC(=O)[C@@H](NC(=O)[C@H](Cc1ccc(O)cc1)NC(=O)[C@H](CC(N)=O)NC(=O)[C@H](CC(N)=O)NC(=O)[C@@H](NC(=O)[C@H](CCC(=O)O)NC(=O)[C@H](CCCNC(=N)N)NC(=O)[C@H](CC(=O)O)NC(=O)[C@H](Cc1c[nH]c2ccccc12)NC(=O)[C@H](CCC(=O)O)NC(=O)[C@H](CCSC)NC(=O)[C@H](Cc1c[nH]c2ccccc12)NC(C)=O)[C@@H](C)CC)[C@@H](C)O)[C@@H](C)CC)C(=O)N[C@@H](CCC(=O)O)C(=O)N[C@@H](CCC(=O)O)C(=O)N[C@@H](CO)C(=O)N[C@@H](CCC(N)=O)C(=O)N[C@@H](CC(N)=O)C(=O)N[C@@H](CCC(N)=O)C(=O)N[C@@H](CCC(N)=O)C(=O)N[C@@H](CCC(=O)O)C(=O)N[C@@H](CCCCN)C(=O)N[C@@H](CC(N)=O)C(=O)NCCCCCC(=O)N[C@@H](CS)C(=O)O (Ac-WMEWDREINNYTSLIHSLIEESQNQQEKN[Ahx]C-OH) | 203 | 0.58 |
| CC[C@H](C)[C@H](NC(=O)[C@H](CC(C)C)NC(=O)[C@H](CO)NC(=O)[C@H](Cc1cnc[nH]1)NC(=O)[C@@H](NC(=O)[C@H](CC(C)C)NC(=O)[C@H](CO)NC(=O)[C@@H](NC(=O)[C@H](Cc1ccc(O)cc1)NC(=O)[C@H](CC(N)=O)NC(=O)[C@H](CC(N)=O)NC(=O)[C@@H](NC(=O)[C@H](CCC(=O)O)NC(=O)[C@H](CCCNC(=N)N)NC(=O)[C@H](CC(=O)O)NC(=O)[C@H](Cc1c[nH]c2ccccc12)NC(=O)[C@H](CCC(=O)O)NC(=O)[C@H](CCSC)NC(=O)[C@H](Cc1c[nH]c2ccccc12)NC(=O)CCNCCOCCOCCOC(=O)[C@H](CS)NC(C)=O)[C@@H](C)CC)[C@@H](C)O)[C@@H](C)CC)C(=O)N[C@@H](CCC(=O)O)C(=O)N[C@@H](CCC(=O)O)C(=O)N[C@@H](CO)C(=O)N[C@@H](CCC(N)=O)C(=O)N[C@@H](CC(N)=O)C(=O)N[C@@H](CCC(N)=O)C(=O)N[C@@H](CCC(N)=O)C(=O)N[C@@H](CCC(=O)O)C(=O)N[C@@H](CCCCN)C(=O)N[C@@H](CC(N)=O)C(=O)O (X1-WMEWDREINNYTSLIHSLIEESQNQQEKN-OH) | 14.7 | 8.08 |
| CC[C@H](C)[C@H](NC(=O)[C@H](CC(C)C)NC(=O)[C@H](CO)NC(=O)[C@H](Cc1cnc[nH]1)NC(=O)[C@@H](NC(=O)[C@H](CC(C)C)NC(=O)[C@H](CO)NC(=O)[C@@H](NC(=O)[C@H](Cc1ccc(O)cc1)NC(=O)[C@H](CC(N)=O)NC(=O)[C@H](CC(N)=O)NC(=O)[C@@H](NC(=O)[C@H](CCC(=O)O)NC(=O)[C@H](CCCNC(=N)N)NC(=O)[C@H](CC(=O)O)NC(=O)[C@H](Cc1c[nH]c2ccccc12)NC(=O)[C@H](CCC(=O)O)NC(=O)[C@H](CCSC)NC(=O)[C@H](Cc1c[nH]c2ccccc12)NC(=O)CCNC(=O)[C@H](CS)NC(C)=O)[C@@H](C)CC)[C@@H](C)O)[C@@H](C)CC)C(=O)N[C@@H](CCC(=O)O)C(=O)N[C@@H](CCC(=O)O)C(=O)N[C@@H](CO)C(=O)N[C@@H](CCC(N)=O)C(=O)N[C@@H](CC(N)=O)C(=O)N[C@@H](CCC(N)=O)C(=O)N[C@@H](CCC(N)=O)C(=O)N[C@@H](CCC(=O)O)C(=O)N[C@@H](CCCCN)C(=O)N[C@@H](CC(N)=O)C(=O)O (Ac-C[βAla]WMEWDREINNYTSLIHSLIEESQNQQEKN-OH) | 19.7 | 6.01 |
| CC[C@H](C)[C@H](NC(=O)[C@H](CC(C)C)NC(=O)[C@H](CO)NC(=O)[C@H](Cc1cnc[nH]1)NC(=O)[C@@H](NC(=O)[C@H](CC(C)C)NC(=O)[C@H](CO)NC(=O)[C@@H](NC(=O)[C@H](Cc1ccc(O)cc1)NC(=O)[C@H](CC(N)=O)NC(=O)[C@H](CC(N)=O)NC(=O)[C@@H](NC(=O)[C@H](CCC(=O)O)NC(=O)[C@H](CCCNC(=N)N)NC(=O)[C@H](CC(=O)O)NC(=O)[C@H](Cc1c[nH]c2ccccc12)NC(=O)[C@H](CCC(=O)O)NC(=O)[C@H](CCSC)NC(=O)[C@H](Cc1c[nH]c2ccccc12)NC(=O)[C@H](CS)NC(C)=O)[C@@H](C)CC)[C@@H](C)O)[C@@H](C)CC)C(=O)N[C@@H](CCC(=O)O)C(=O)N[C@@H](CCC(=O)O)C(=O)N[C@@H](CO)C(=O)N[C@@H](CCC(N)=O)C(=O)N[C@@H](CC(N)=O)C(=O)N[C@@H](CCC(N)=O)C(=O)N[C@@H](CCC(N)=O)C(=O)N[C@@H](CCC(=O)O)C(=O)N[C@@H](CCCCN)C(=O)N[C@@H](CC(N)=O)C(=O)O (Ac-CWMEWDREINNYTSLIHSLIEESQNQQEKN-OH) | 41.6 | 2.84 |
| CC[C@H](C)[C@H](NC(=O)[C@H](CC(C)C)NC(=O)[C@H](CO)NC(=O)[C@H](Cc1cnc[nH]1)NC(=O)[C@@H](NC(=O)[C@H](CC(C)C)NC(=O)[C@H](CO)NC(=O)[C@@H](NC(=O)[C@H](Cc1ccc(O)cc1)NC(=O)[C@H](CC(N)=O)NC(=O)[C@H](CC(N)=O)NC(=O)[C@@H](NC(=O)[C@H](CCC(=O)O)NC(=O)[C@H](CCCNC(=N)N)NC(=O)[C@H](CC(=O)O)NC(=O)[C@H](Cc1c[nH]c2ccccc12)NC(=O)[C@H](CCC(=O)O)NC(=O)[C@H](CCSC)NC(=O)[C@H](Cc1c[nH]c2ccccc12)NC(C)=O)[C@@H](C)CC)[C@@H](C)O)[C@@H](C)CC)C(=O)N[C@@H](CCC(=O)O)C(=O)N[C@@H](CCC(=O)O)C(=O)N[C@@H](CO)C(=O)O (Ac-WMEWDREINNYTSLIHSLIEES-OH) | 1240 | – |

Reference: ChEMBL document CHEMBL2412996, “Increase of anti-HIV activity of C-peptide fusion inhibitors using a bivalent drug design approach” (Bioorg Med Chem Lett, 2013)
